For assay [1], the target named is TraR (Agrobacterium tumefaciens, UniProt P33905). The assay is described as follows: cell-based. Also on record: and Agrobacterium tumefaciens WCF (pCF372); endogenous in cells; host or cells: Agrobacterium tumefaciens WCF (pCF372). The conditions noted are these: for Inhib %: thiolactone libraries, A. tumefaciens, synthetic ligands tested at 10 μM; for IC50: dose response. Format: cell-based. The method, then:
(§1) The initial library was also tested in Vibrio fischeri ESI 114 (Δ-LuxI) [Lupp, C.; Urbanowski, M.; Greenberg, E. P.; Ruby, E. G., The Vibrio fischeri quorum-sensing systems ain and lux sequentially induce luminescence gene expression and are important for persistence in the squid host. Mol. Microbiol. 2003, 50 (1), 319-331] and Agrobacterium tumefaciens WCF (pCF372). […] J. Bacteriol. 1998, 180 (20), 5398-5405.] […] [Geske, G. D.; O'Neill, J. C.; Miller, D. M.; Mattmann, M. E.; Blackwell, H. E., Modulation of Bacterial Quorum Sensing: Systematic Evaluation of N-Acylated Homoserine Lactones in Multiple Species and New Insights into Their Mechanism of Action. J. Am. Chem. Soc. 2007, 129, 13613-13625.]

The target of assay [2] is T1, LasR (Pseudomonas aeruginosa, UniProt P25084).
T1 construct: expressed in transfected cells; host or cells: Escherichia coli DH5α (pJN105L+pSC11)
The assay is described as follows: LasR agonism assay, E. coli DH5α (pJN105L+pSC11) β-galactosidase reporter strain. Format: cell-based, P. aeruginosa. The conditions noted are these: for Act %: thiolactone libraries, E. coli, synthetic ligands tested at 10 μM; for Agonist, percent of activation compared to the positive control: initial library (FIG. 4); for Agonist, percent of activation compared to the positive control / LasR agonism, in words / EC50: E. coli DH5α (pJN105L+pSC11); for EC50: dose response. The method, then: (§2) The black bars are DH5α (pJN105L+pSC11) and the grey bars are PA01 MW1 (pUM15). Agonism positive control=activity of the reporter strain at full turn on for the strain. […] Negative control (Neg)=bacteria in the absence of natural and synthetic ligand. Error bars=standard deviation of the mean of triplicate samples.
(§3) The initial library was tested for LasR agonistic and antagonistic activity in two strains: Escherichia coli DH5α (pJN105L+pSC11) [Lee, J. H.; Lequette, Y.; Greenberg, E. P., Activity of purified QscR, a Pseudomonas aeruginosa orphan quorum-sensing transcription factor. Mol. Microbiol. 2006, 59 (2), 602-609] and P. aeruginosa PA01 MW1 (pUM15) [Muh, U.; Schuster, M.; Heim, R.; Singh, A.; Olson, E.; Greenberg, E. P., Novel Pseudomonas aeruginosa Quorum-Sensing Inhibitors Identified in an Ultra-High-Throughput Screen. Antimicrob. Agents Chemother. 2006, 50, 3674-3679] (FIGS. 5A and 5B). Both strains allow for synthetic autoinducer mimic evaluation and contain a reporter gene that allows for a quantitative readout of QS activity. DH5α (pJN105L+pSC11) is a heterologous β-galactosidase E. coli reporter strain containing a plasmid for the P. aeruginosa LasR gene. The PA01 MW1 (pUM15) strain uses the natural P. aeruginosa background containing a LasI deletion and the gene for yellow fluorescent protein (YFP) under the control of the LasI promoter to evaluate the LasI/R activity. Since the PA01 MW1 (pUM15) strain evaluates LasR in the natural P. aeruginosa background, in contrast to the heterologous E. coli strain, an improved idea of the interplay between the isolated LasI/R system and the combination of LasI/R with other QS subsystems such as QscR can be determined. Furthermore, additional nuances of the natural system such as compound permeability are incorporated in assays using the PA01 MW1 (pUM15) strain.

Assay [3] addresses T1, LasR. Briefly: LasR agonism assay, P. aeruginosa PA01 MW1 (pUM15) YFP reporter strain. The conditions noted are these: for Act %: thiolactone libraries, P. aeruginosa, synthetic ligands tested at 10 μM; for Agonist, percent of activation compared to the positive control: initial library (FIG. 4), P. aeruginosa PA01 MW1; for EC50: dose response. Type of assay: cell-based. The method, then: as §2, §3

For assay [4], the target named is T1, LasR. The assay is described as follows: LasR antagonism assay, E. coli DH5α (pJN105L+pSC11) β-galactosidase reporter strain. Format: cell-based, P. aeruginosa. The conditions noted are these: thiolactone libraries, synthetic ligands tested at 10 μM.
The target in assay [5] is LuxR (Aliivibrio fischeri, UniProt P35327). The assay is described as follows: cell-based. Also on record: The initial library was also tested in Vibrio fischeri ESI 114 (Δ-LuxI); endogenous in cells; host or cells: Vibrio fischeri ESI 114 (Δ-LuxI). The conditions noted are these: for Inhib %: thiolactone libraries, V. fischeri, synthetic ligands tested at 10 μM; for Antagonism, in words: V. fischeri strain; for Antagonist, percent inhibition compared to a positive control: initial library (FIG. 4); for Antagonist, percent inhibition compared to a positive control / IC50: V. fischeri ESI 114 (Δ-LuxI); for IC50: dose response. Type of assay: cell-based, Vibrio fischeri. How it is done: as §1

Assay [6] deals with T1, LasR. The assay is described as follows: LasR antagonism assay, E. coli DH5α (pJN105L+pSC11) β-galactosidase reporter strain. Type of assay: cell-based, P. aeruginosa. The conditions noted are these: dose response; E. coli DH5α (pJN105L+pSC11). The method, then: FIG. 5B is a bar graph showing the results of […] assay for initial heterocyclic and carbocyclic library (Scheme 1) shown as a percent of the positive control. Antagonism positive control (Pos)=activity of the reporter strain in the absence of synthetic ligand at the EC50 value for the strain. […] Negative control (Neg)=bacteria in the absence of natural and synthetic ligand. Error bars=standard deviation of the mean of triplicate samples.
as §3

T1 sequence (P25084 whole entry): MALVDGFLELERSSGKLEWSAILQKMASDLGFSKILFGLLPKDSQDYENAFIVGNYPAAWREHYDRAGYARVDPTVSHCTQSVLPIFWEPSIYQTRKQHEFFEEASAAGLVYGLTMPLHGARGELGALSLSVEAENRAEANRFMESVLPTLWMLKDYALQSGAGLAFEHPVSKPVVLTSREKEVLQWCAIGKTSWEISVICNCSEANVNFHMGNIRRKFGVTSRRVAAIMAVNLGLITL
Chain of LuxR (P35327 whole entry): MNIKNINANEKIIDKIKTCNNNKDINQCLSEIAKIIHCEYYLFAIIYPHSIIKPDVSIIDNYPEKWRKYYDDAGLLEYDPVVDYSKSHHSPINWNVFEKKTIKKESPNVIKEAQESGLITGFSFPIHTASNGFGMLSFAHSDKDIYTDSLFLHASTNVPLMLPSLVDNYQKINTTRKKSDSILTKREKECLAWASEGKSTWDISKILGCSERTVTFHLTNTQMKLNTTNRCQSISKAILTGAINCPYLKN
Chain of TraR (P33905 whole entry): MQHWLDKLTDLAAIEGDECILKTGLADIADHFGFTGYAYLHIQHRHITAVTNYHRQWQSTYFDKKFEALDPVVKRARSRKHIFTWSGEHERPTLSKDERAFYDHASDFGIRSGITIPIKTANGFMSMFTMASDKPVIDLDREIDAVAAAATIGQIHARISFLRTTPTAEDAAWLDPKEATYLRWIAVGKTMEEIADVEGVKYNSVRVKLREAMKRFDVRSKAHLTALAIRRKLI

For `O=C(Cc1ccc(Br)cc1)NC1CCSC1=O` (racemic) [Compound 18], the Inhib % in assay [1] is reported as −60%; in assay [4] it was 80%; in assay [5] it was 97%. The Act % in assay [2] was 2%; in assay [3], 8%.

In the case of `O=C(Cc1cccc([N+](=O)[O-])c1)NC1CCSC1=O` (racemic) [Compound 19], the Inhib % is on record as 33% in assay [1], −13% in assay [4] and 19% in assay [5]. Besides, the Act % in assay [2] is on record as 82%; in assay [3], 5%.

On to `COc1ccc(CC(=O)NC2CCSC2=O)cc1` (racemic) [Compound 20], for which the Inhib % in assay [1] was −107%; in assay [4] it was 51%; in assay [5] it was 70%. Moreover, the Act % worked out at 1% in assay [2] and 7% in assay [3].

For the compound `O=C(Cc1ccccc1)NC1CCSC1=O` (racemic) [Compound 21], the values for the Inhib % in assay [1], in assay [4] and in assay [5] were −22%, 65% and 34%, respectively. Also, the Act % in assay [2] and in assay [3] was 2% in each case.

For `O=C(CCc1c[nH]c2ccccc12)NC1CCSC1=O` (racemic) [Compound 22], the Inhib % in assay [1] was −80%; in assay [4], 16%; in assay [5], 68%. The Act % is 4% in assay [2] and 10% in assay [3].

As to `O=C(Cc1ccc(-c2ccccc2)cc1)NC1CCSC1=O` (racemic) [Compound 23], the Inhib % is listed as 9% in assay [1], 56% in assay [4] and 98% in assay [5]. In addition, the Act % came out at 9% in assay [2] and 3% in assay [3].

Turning to `CCCCCCCCCC(=O)CC(=O)NC1CCSC1=O` (stereo not shown) [Compound 1], the “Antagonism, in words” value in assay [1] (A. tumefaciens strain) and in assay [5] was “good antagonist” throughout. Also, the “Antagonist, percent inhibition compared to a positive control” value in assay [1] (initial library (FIG. 4), A. tumefaciens WCF (pCF372), negative values indicate agonist properties) was 65%; in assay [5], 92%. Also, the Inhib % was 92% in assay [1], −40% in assay [4] and 99% in assay [5]. Moreover, the “Agonist, percent of activation compared to the positive control” value (“Agonist, percent of activation” for short) stood at 94% in assay [2] and 88% in assay [3]. The Act % in assay [2] turned out to be 94%; in assay [3] it was 88%.

Turning to `CCCCCCCCCC(=O)CC(=O)NC1CCCC1` [Compound 3], in assay [2], the “LasR agonism, in words” value is reported as “agonist” and the “Agonist, percent of activation” value came out at 83.5%. Further, the “LasR agonism, in words” value in assay [3] (P. aeruginosa PA01 MW1 (pUM15), natural background) is given as “agonist”. Further, the “Agonist, percent of activation” value in assay [3] turned out to be 54.2%. In addition, in assay [5], the “Antagonism, in words” value is listed as “modest antagonist” and the “Antagonist, percent inhibition compared to a positive control” value is 89.4%.

Usually IC50 stands for the concentration that inhibits the measured activity by half. For `O=C(Cc1ccc(Br)cc1)N[C@H]1CCSC1=O` [Compound 18E], the Inhib % amounted to 25% in assay [1], 68% in assay [4] and 91% in assay [5]. Moreover, the results for the Act % in assay [2] and in assay [3] were 8% and 5%, respectively. For the same compound, the figures for the IC50 in assay [6] and in assay [5] were 400 nM and 770 nM, respectively.

With `COc1ccc(CC(=O)N[C@H]2CCSC2=O)cc1` [Compound 20E], the Inhib % in assay [1] was −24%; in assay [4], 48%; in assay [5], 59%. Besides, the figures for the Act % in assay [2] and in assay [3] were 0% and 4%, respectively. In assay [6], the IC50 was found to be 7200 nM.

As for `O=C(Cc1ccccc1)N[C@H]1CCSC1=O` [Compound 21E], the Inhib % in assay [1] is recorded as 13%; in assay [4] it was 61%; in assay [5] it was 30%. In addition, the Act % came out at 3% in assay [2] and 17% in assay [3]. The concentration for half-maximal inhibition (IC50) in assay [6] was found to be 2500 nM.

In the case of `O=C(Cc1ccc(-c2ccccc2)cc1)N[C@H]1CCSC1=O` [Compound 23E], the figures for the Inhib % in assay [1], in assay [4] and in assay [5] were 26%, 45% and 85%, respectively. The Act % is 0% in assay [2] and 1% in assay [3]. For the same compound, the half-inhibitory concentration (IC50) in assay [6] came to 2900 nM; in assay [5], 350 nM.

Usually EC50 stands for the concentration at which the effect is half-maximal. `CCCCCCCCCCCC(=O)N[C@H]1CCSC1=O` [Compound 25E]: the Inhib % in assay [1] is 6%; in assay [4], −93%; in assay [5] it was 57%. For the same compound, the “LasR agonism, in words” value in assay [2] is given as “strong agonists”. The figures for the EC50 in assay [2] and in assay [3] (P. aeruginosa PA01 MW1 (pUM15)) were 1900 nM and 21 µM, respectively. For the same compound, the results for the Act % in assay [2] and in assay [3] were 4% and 42%, respectively.

As for `CCCCCCCC(=O)N[C@H]1CCSC1=O` [Compound 26E], the IC50 worked out at 2.8 µM in assay [1] (A. tumefaciens WCF (pCF372)), 140 nM in assay [6] and 130 nM in assay [5]. Also, the Inhib % was determined as 99% in assay [1], 64% in assay [4] and 80% in assay [5]. The results for the Act % in assay [2] and in assay [3] were 85% and 0%, respectively.

Consider `CCCCCCC(=O)N[C@H]1CCSC1=O` [Compound 27E], for which the IC50 in assay [1] (A. tumefaciens WCF (pCF372)) was 10 µM; in assay [6], 790 nM; in assay [5], 310 nM. The Inhib % in assay [1], in assay [4] and in assay [5] was 78% in each case. Also, the results for the Act % in assay [2] and in assay [3] were 8% and 0%, respectively.

As for `CCCCCC(=O)N[C@H]1CCSC1=O` [Compound 28E], the Inhib % in assay [1] is −78%; in assay [4] it was 59%; in assay [5], 93%. The Act % in assay [2] turned out to be 1%; in assay [3], 20%. The half-maximal inhibitory concentration (IC50) amounted to 1100 nM in assay [6] and 840 nM in assay [5].

Consider `CCCC(=O)N[C@H]1CCSC1=O` [Compound 29E], for which the Inhib % in assay [1] was −70%; in assay [4], 17%; in assay [5], 42%. Further, the Act % in assay [2] was found to be 4%; in assay [3], 22%.

As to `CCCC(=O)CC(=O)N[C@H]1CCSC1=O` [Compound 30E], in assay [1] (A. tumefaciens WCF (pCF372)), the IC50 was 3.2 µM. The Inhib % in assay [1] is on record as 93%; in assay [4] it was −119%; in assay [5], 62%. For the same compound, the EC50 in assay [2] is 130 nM; in assay [3] (P. aeruginosa PA01 MW1 (pUM15)), 13 µM. The Act % in assay [2] was 6%; in assay [3], 76%.

With `CCOC(=O)CNC(=O)CCc1cccc(I)c1` [Compound 34], in assay [5], the “Antagonism, in words” value is “excellent antagonistic activity”.

For the origin of these results see patent US9758472B2, “Non-lactone carbocyclic and heterocyclic antagonists and agonists of bacterial quorum sensing” (WISCONSIN ALUMNI RESEARCH FOUNDATION, priority 2009, dated 2017).
